Assay results published in PubChem BioAssay (NCI).
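In this assay, cells in 96-well plates receive the compound at five concentrations for 48 hours. Endpoints are linearly interpolated between the surrounding concentrations. At the TGI there is no net growth.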

What was measured:
Test in all cases: NCI tumour cell line growth inhibition, 48 h
SNB-19 CNS = test system: SNB-19 CNS
BT-549 breast = test system: BT-549 breast
ACHN renal = test system: ACHN renal
A549 NSCLC = test system: A549 NSCLC
OVCAR-8 ovarian = test system: OVCAR-8 ovarian
SK-OV-3 ovarian = test system: SK-OV-3 ovarian
SK-MEL-5 melanoma = test system: SK-MEL-5 melanoma
RPMI-8226 leukemia = test system: RPMI-8226 leukemia
SNB-75 CNS = test system: SNB-75 CNS
K-562 leukemia = test system: K-562 leukemia
OVCAR-4 ovarian = test system: OVCAR-4 ovarian

| SMILES | TGI (SNB-19 CNS) [µM] | TGI (BT-549 breast) [µM] | TGI (ACHN renal) [µM] | TGI (A549 NSCLC) [µM] | TGI (OVCAR-8 ovarian) [µM] | TGI (SK-OV-3 ovarian) [µM] | TGI (SK-MEL-5 melanoma) [µM] | TGI (RPMI-8226 leukemia) [µM] | TGI (SNB-75 CNS) [µM] | TGI (K-562 leukemia) [µM] | TGI (OVCAR-4 ovarian) [µM] |
| --- | --- | --- | --- | --- | --- | --- | --- | --- | --- | --- | --- |
| CCOC(=O)c1c(SCCN2CCCC2)n(-c2ccccc2)c(=S)n(-c2ccccc2)c1=O | 31.2 | 13.9 | 3.17 | 14.6 | 4.29 | 34.5 | 10 | 5.87 | 19.5 | 5.63 | 27 |
| COc1ccc(NC2Oc3cc4c(cc3C(c3cc(OC)c(OC)c(OC)c3)C2C)OCO4)cc1 (stereo not given) | > 100 | > 87.9 | > 38.5 | > 61.9 | > 45.4 | > 100 | 4.09 | > 83 | > 100 | > 100 | > 100 |
| C=CC/C(C(=O)OC)=C(/C(=O)OC)N(CCC)CCC | > 100 | > 100 | > 100 | > 100 | > 100 | > 100 | > 100 | > 100 | > 100 | > 100 | > 100 |
| CC(=O)CC(=O)c1cc2c(=O)oc(C)cc2oc1=O | > 37.5 | > 37.5 | > 37.5 | > 37.5 | > 37.5 | > 37.5 | > 37.5 | > 37.5 | > 37.5 | > 37.5 | > 37.5 |
| CC1=CC=CC(C)(C)CC1(O[Si](C)(C)C)C(F)(F)F (stereo not given) | > 100 | > 100 | > 100 | > 100 | > 100 | > 100 | > 100 | > 100 | > 100 | > 100 | > 100 |
| CCN(CC)CCCn1c(=O)c2cccnc2n2c3c(=O)n(C)c(=O)n(C)c3nc12 | > 100 | > 100 | > 100 | > 100 | > 100 | > 100 | > 100 | > 100 | > 100 | > 100 | > 100 |
| O=C1CC(c2ccc([N+](=O)[O-])cc2)C2(C(=O)NC(=S)NC2=O)C(c2ccc([N+](=O)[O-])cc2)C1 (stereo not given) | 43.5 | 34.1 | 40.4 | 50.4 | 45.1 | > 100 | 99.1 | > 100 | > 100 | > 100 | > 100 |
| CC(C)(CO)N1C(=O)c2ccccc2C1(O)c1ccc(Cl)cc1 (stereo not given) | > 100 | > 100 | > 100 | > 100 | > 100 | > 100 | > 100 | > 100 | > 100 | > 100 | > 100 |
| Nc1ncnc2c1ncn2C(=O)NC12CC3CC(CC(C3)C1)C2 | > 100 | > 100 | > 100 | > 100 | > 100 | > 100 | > 100 | > 100 | > 100 | > 100 | > 100 |
| N#Cc1c2c(c(Nc3ccc(F)cc3)n3c1nc1ccccc13)CCC2 | 22.1 | 17.8 | 5.8 | 22.5 | 5.83 | 26.8 | 8.52 | > 21.3 | 16.7 | > 100 | 28.4 |
| CCOC(=O)C1C(=O)CC(O)(c2ccccc2)C(C(=O)OCC)C1c1ccc(OC)cc1 (stereo not given) | > 72.5 | > 100 | > 100 | > 100 | > 100 | 89.9 | > 100 | 40.6 | 11.9 | > 83.4 | > 100 |
| O=C1/C(=C/c2ccc(Br)s2)NC(=S)N1CN1CCOCC1 | > 100 | > 100 | > 100 | – | > 100 | – | > 100 | 43 | > 100 | 99.2 | > 100 |
| CCC[C@H](C)[C@H]1NC(=O)[C@@H](NC(=O)[C@@H](CC(C)C)N(C)C(=O)C2CCCN2C(=O)[C@H](C)O)[C@@H](C)OC(=O)[C@H](CC(C)C)N(C)C(=O)[C@@H]2CCCN2C(=O)[C@H](CC(C)C)NC(=O)[C@@H](C)C(=O)[C@H](C(C)C)OC(=O)C[C@@H]1O (stereo not given in full) | 0.06 | 0.025 | 0.0689 | 0.131 | 0.0484 | 0.14 | 0.00381 | 0.0768 | 0.0246 | 3.26 | 0.0117 |
| C[C@@H]1C[C@H](O)[C@]2(O)O[C@@H]3C[C@@]4(C=O)[C@@H](CC=C5[C@@H]4CC[C@]4(C)[C@@H](C6=CC(=O)OC6)CC[C@]54O)C[C@H]3O[C@@H]2O1 | 0.93 | 0.0508 | 0.0821 | 0.097 | 0.22 | 1.86 | 0.133 | 0.349 | 0.916 | > 100 | < 0.0169 |
| C(=Nc1ccc(-c2nc3ccccc3s2)cc1)c1ccco1 | > 100 | > 100 | > 100 | > 100 | > 100 | > 100 | > 100 | > 100 | > 100 | > 100 | > 100 |
| CCOP(=O)(OCC)/C(F)=C/c1ccccc1 | > 100 | > 100 | > 100 | > 100 | > 100 | > 100 | > 100 | > 100 | > 100 | > 100 | > 100 |
| COC(=O)CCCC(=O)C(=Nc1c(Cl)cccc1Cl)NNc1ccc(Cl)cc1 | > 100 | > 100 | > 100 | > 100 | > 100 | > 100 | > 90.9 | > 100 | > 88.9 | > 100 | > 100 |
| O=C1C(C=NCCc2c[nH]c3ccccc23)C(C(F)(F)F)=NN1c1nc2ccccc2s1 (stereo not given) | > 100 | 66.3 | 83.5 | > 100 | > 100 | 76.2 | 37.1 | 62.5 | > 100 | > 100 | 63 |
| O=C(O)Cc1ccc2nc(COC(=O)c3ccccc3)sc2c1 | > 100 | > 100 | > 100 | > 100 | > 100 | > 100 | > 100 | > 100 | > 100 | > 100 | > 100 |
| O=c1nc2c(c(-c3cccc(Cl)c3)[nH]1)COC/C2=C\c1cccc(Cl)c1 | > 100 | > 100 | > 100 | – | > 100 | > 100 | > 100 | > 100 | > 100 | > 100 | > 100 |

| SMILES | TGI (SNB-19 CNS) [µM] | TGI (BT-549 breast) [µM] | TGI (ACHN renal) [µM] | TGI (A549 NSCLC) [µM] | TGI (OVCAR-8 ovarian) [µM] | TGI (SK-OV-3 ovarian) [µM] | TGI (SK-MEL-5 melanoma) [µM] | TGI (RPMI-8226 leukemia) [µM] | TGI (SNB-75 CNS) [µM] | TGI (K-562 leukemia) [µM] | TGI (OVCAR-4 ovarian) [µM] |
| --- | --- | --- | --- | --- | --- | --- | --- | --- | --- | --- | --- |
| COc1ccc2c(c1)C(=O)c1ccccc1C2 | > 100 | > 100 | > 100 | > 100 | > 100 | > 100 | > 100 | > 100 | 63.5 | > 100 | > 100 |
| NCCCC(N)C(=O)O (stereo not given) | > 100 | > 100 | > 100 | > 100 | > 100 | > 100 | > 100 | > 100 | > 100 | > 100 | > 100 |
| CC(=O)OCC1OC(n2c(=S)[nH]c(-c3ccccc3)c(C#N)c2=O)C(OC(C)=O)C(OC(C)=O)C1OC(C)=O (stereo not given) | > 100 | > 100 | > 100 | > 100 | > 100 | > 100 | > 100 | > 100 | > 100 | > 100 | > 100 |
| O=[N+]([O-])C(=C(Sc1ccccc1)Sc1ccccc1)C(Cl)=C(Cl)Cl | 24.8 | 4.61 | 0.895 | 6.59 | 0.831 | 24.6 | 3.58 | 0.0712 | 10.7 | 0.701 | 1.46 |
| N#CSCc1cccc(Nc2cc(=O)[nH]c(=O)[nH]2)c1 | > 100 | > 100 | > 100 | > 100 | > 100 | > 100 | 99.1 | > 100 | > 100 | > 100 | > 100 |
| N#CC(C#N)=C1CCCS(=O)(=O)c2ccccc21 | > 100 | > 100 | > 100 | > 100 | > 100 | > 100 | – | > 100 | > 100 | > 100 | > 100 |
| O=C(O)CNC(=O)c1ccc([As](=O)(O)O)cc1 | > 100 | > 100 | > 100 | > 100 | > 100 | > 100 | > 100 | > 100 | > 100 | > 100 | > 100 |
| Brc1ccc2c3c1[C@@H]1O[C@@H]1c1cccc(c1-3)[C@@H]1O[C@H]21 | 60.9 | 43.2 | 67.1 | > 92.1 | 30.8 | > 71.2 | 33.4 | > 100 | 45.2 | > 100 | 41.3 |
| O=c1c2cc(I)ccc2[nH]c(=S)n1Cc1ccccc1 | 98.9 | 44.6 | > 100 | > 100 | > 100 | > 100 | > 100 | > 100 | 54.4 | > 100 | > 100 |
| O=C1/C(=C/c2ccc([N+](=O)[O-])cc2)CNC/C1=C\c1ccc([N+](=O)[O-])cc1 | 10.6 | 7.73 | 25.3 | > 70.7 | 8.36 | > 100 | 25.3 | 2.75 | 17 | 1.21 | > 50.9 |
| Cc1cc(O)cc(O)c1N=Nc1ccc([N+](=O)[O-])cc1 | > 100 | 54.1 | 94.9 | > 100 | > 100 | > 100 | 38.4 | 39.8 | 45.6 | > 100 | 57 |
| CC(C)/C(Cl)=N\OC(=O)NNc1ccccc1 | > 100 | > 100 | 34.1 | > 100 | > 100 | > 100 | > 54 | 1.34 | > 100 | – | > 100 |
| Cc1ccc(C(=O)Nc2ccc(CP(=O)(O)O)cc2)cc1NC(=O)c1cccc(NC(=O)Nc2cccc(C(=O)Nc3cc(C(=O)Nc4ccc(CP(=O)(O)O)cc4)ccc3C)c2)c1 | > 100 | > 100 | > 100 | > 100 | > 100 | > 100 | > 100 | > 100 | > 100 | > 100 | > 100 |
| O=C1C(Br)=Cc2c(Cl)sc(Cl)c21 | 50.7 | 88.4 | 9.83 | > 72.9 | 33.3 | 35.8 | > 53.7 | 2.98 | 30.4 | 13.6 | 8.81 |
| Cc1oc2nc(N(C)C)n3nnnc3c2c1C | > 100 | > 100 | > 100 | > 100 | > 100 | > 100 | > 100 | > 100 | > 100 | > 100 | > 100 |
| Cc1nc2cc(C(F)(F)F)ccc2[nH]c1=O | > 100 | > 100 | > 100 | > 100 | > 100 | > 100 | > 100 | > 100 | > 100 | > 100 | > 100 |
| CC(C)c1c(P(=O)(c2ccccc2)c2ccccc2)n(C)c2ccccc12 | > 100 | > 100 | > 100 | > 100 | > 100 | – | – | > 100 | > 100 | > 100 | > 100 |
| COC(=O)C1CC(C=[N+](C)C)=C(SC)N1 (stereo not given) | > 100 | > 100 | > 100 | – | > 100 | > 100 | > 100 | > 100 | > 100 | > 100 | > 100 |
| COc1cc2c(cc1OC)C(=O)/C(=C/c1cc(C)c(O)c(C)c1)C2 | > 100 | > 100 | > 100 | > 100 | – | > 100 | > 100 | > 100 | > 100 | > 100 | > 100 |
